What is called viability is a per cent measure of how many cells are alive, often set against a control.

The test system of series [1] is OGD/R‐treated HT22 cells. Kind of series: Neuroprotective effect on OGD/R-treated HT22 cells, cell viability by CCK-8. Type of series: cell-based. As to conditions: for viability at 2 µM / viability at 20 µM: Mus musculus, HT-22, 6 h OGD, 24 h reoxygenation with compound, relative to control cells, mean ± S.D., n = 3. Here is the method:
HT22 cells were washed with phosphate buffered saline (PBS), then DMEM sugar‐free medium (Gibco, USA) was added and placed in the anaerobic incubator of 5% CO2, 1% O2, and 37 °C for 6 h. PB3 or other compounds were previously dissolved in DMEM/F‐12 with 10% FBS and 1% penicillin/streptomycin. After undergoing OGD for 6 h, the medium was replaced by DMEM/F‐12 with 10% FBS and 1% penicillin/streptomycin containing PB3 or other compounds and kept in a humidified 5% CO2, 37 °C incubator for 24 h.
The CCK‐8 assay kit (Yeasen, China) was used to assess cell viability. All operations were performed following instructions. HT22 cells were seeded into the 96‐well plate (3000 cells per well). The cells were cultured at 37 °C with 5% CO2 in a humidified incubator overnight. After 6 h of OGD, the medium was replaced by DMEM/F‐12 with 10% FBS and 1% penicillin/streptomycin containing PB3 or other compounds and kept in a humidified 5% CO2, 37 °C incubator for 24 h. Then, the cells were washed with PBS, the medium was replaced with DMEM/F‐12 with 10% FBS and 1% penicillin/streptomycin containing 10% CCK‐8 solution, and incubated for 1 h at 37 °C. The absorbance was assessed by a Synergy H1 multi‐mode microplate reader (BioTek, USA) at 450 nm.

Series [2] addresses T1, G3BP1 (Mus musculus, UniProt P97855).
T1 construct: endogenous in cells; host or cells: HT22 cell lysate
Kind of series: Pull-down analysis with PB3-BP probe in HT22 lysates. Format: binding. As to conditions: 200 µM PB3‐BP, blocked by free PB3. The method, then: HT22 cells were grown to 90% confluency and harvested by trypsin and resuspended in 1 mL PBS (containing protease inhibitors and 0.1% Triton X‐100). The samples were subjected to three freeze–thaw cycles in liquid nitrogen. Each cell lysate was centrifuged (12000 g for 30 min at 4 °C), and the supernatant was collected. The protein concentrations were determined by a BCA protein assay kit (Thermo Scientific, USA). The lysates were adjusted to 2 mg mL^−1 and treated with 200 µM PB3 or DMSO, labeled with 200 µM of PB3‐BP or DMSO, and then put on ice under UV radiation at 365 nm for 1 h. The labeled proteins were precipitated with chloroform‐methanol. Then the precipitations were resuspended with 1.2% SDS/PBS and combined with 300 µM biotin‐PEG3‐azide, 100 µM tris(benzyltriazolylmethyl)amine, 1 mM tris(2‐carboxyethyl)phosphine hydrochloride, and 1 mM CuSO4 for 1 h. After this reaction, the proteomes were extracted again with chloroform‐methanol. The proteins were solubilized with 1.2% SDS/PBS and diluted 5x with PBS. The solubilized proteins were incubated with streptavidin beads (100 µL of slurry, Thermo Scientific, USA) at room temperature for 3 h with rotation. […] The eluted proteins were analyzed by SDS‐polyacrylamide gel electrophoresis and immunoblotted with anti‐G3BP1 antibody.

The format of series [3] is physicochemical. Here is the method:
Furthermore, a small‐molecule procyanidin B3‐benzophenone probe (PB3‐BP, 2, Figure 2G) was synthesized based on a non‐protective condensation strategy (Scheme S1, Supporting Information).^[ [29] ^] The stability of compound 2 is poor, and its structure is determined by 2D‐NMR after acetylation (Figure S4, Supporting Information). […] To identify the specific targeting sites of PB3 on G3BP1, the ultraviolet‐crosslinked complex of PB3‐BP/G3BP1 was digested with trypsin and subjected to LC‐MS/MS analysis.^[ [30] ^] […] To evaluate the affinity between the wild type and four mutants (L105A, R107A, Q134A, D135A) ^[ [34] ^] of the G3BP1 NTF2L domain and PB3, molecular dynamics simulations were performed to analyze each complex system based on docking results.^[ [35] ^]

T1 sequence (P97855 whole entry): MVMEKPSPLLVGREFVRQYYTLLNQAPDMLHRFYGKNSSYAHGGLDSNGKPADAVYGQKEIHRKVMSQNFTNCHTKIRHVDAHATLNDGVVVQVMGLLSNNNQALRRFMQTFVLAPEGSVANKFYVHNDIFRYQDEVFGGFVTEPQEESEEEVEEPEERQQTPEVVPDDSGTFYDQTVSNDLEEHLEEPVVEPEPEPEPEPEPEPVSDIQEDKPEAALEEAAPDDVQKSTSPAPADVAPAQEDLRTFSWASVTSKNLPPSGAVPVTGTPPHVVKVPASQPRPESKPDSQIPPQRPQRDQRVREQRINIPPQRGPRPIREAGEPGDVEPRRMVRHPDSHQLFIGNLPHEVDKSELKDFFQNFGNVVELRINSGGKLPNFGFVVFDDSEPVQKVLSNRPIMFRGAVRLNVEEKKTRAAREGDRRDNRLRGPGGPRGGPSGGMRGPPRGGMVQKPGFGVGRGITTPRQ

Take `CCc1c(O)cc(O)c2c1O[C@H](c1ccc(O)c(O)c1)[C@@H](O)[C@@H]2c1c(O)cc(O)c2c1O[C@H](c1ccc(O)c(O)c1)[C@@H](O)C2` [Compound 6b, 8‐Ethyl‐(+)‐Catechin‐(4α,8)‐(+)‐Catechin]: in series [1], the viability at 2 µM turned out to be 62 ± 9.21% and the viability at 20 µM came to 73.6 ± 4.78%.
Consider `COc1cc(OC)c2c(c1)O[C@H](c1ccc(OC)c(OC)c1)[C@@H](O)[C@@H]2c1c(OC)cc(OC)c2c1O[C@H](c1ccc(OC)c(OC)c1)[C@@H](O)C2` [Compound 9, 5,7,3′,4′‐Tetra‐O‐Methyl‐(+)‐Catechin‐(4α, 8)‐[5,7,3′,4′‐Tetra‐O‐Methyl‐(+)‐Catechin]], for which, in series [1], the viability at 2 µM amounted to 52.6 ± 7.34% and the viability at 20 µM was determined as 66.8 ± 1.89%.
Taken in the same sequence, the figures for `COc1cc([C@H]2Oc3c(c(O)cc(O)c3[C@@H]3c4c(O)cc(O)cc4O[C@H](c4ccc(O)c(O)c4)[C@H]3O)C[C@@H]2O)ccc1O` [Compound 13c, (+)‐Catechin‐(4α,8)‐[3′‐O‐Methyl‐(+)‐Catechin]] were 66.2 ± 10.6% and 66.1 ± 2.9%.
Regarding `CC(C)Cc1c(O)cc(O)c2c1O[C@H](c1ccc(O)c(O)c1)[C@@H](O)[C@@H]2c1c(O)cc(O)c2c1O[C@H](c1ccc(O)c(O)c1)[C@@H](O)C2` [Compound 6e, 8‐Isobutyl‐(+)‐Catechin‐(4α,8)‐(+)‐Catechin], in series [1], the viability at 2 µM stood at 58.5 ± 8.12% and the viability at 20 µM was 67 ± 2.7%.
Taken in the same sequence, the figures for `Cc1c(O)cc(O)c2c1O[C@H](c1ccc(O)c(O)c1)[C@@H](O)[C@@H]2c1c(O)cc(O)c2c1O[C@H](c1ccc(O)c(O)c1)[C@@H](O)C2` [Compound 6a, 8‐Methyl‐(+)‐Catechin‐(4α,8)‐(+)‐Catechin] were 56.7 ± 2.22% and 70.2 ± 2.92%.
The corresponding values for `CCCc1c(O)cc(O)c2c1O[C@H](c1ccc(O)c(O)c1)[C@@H](O)[C@@H]2c1c(O)cc(O)c2c1O[C@H](c1ccc(O)c(O)c1)[C@@H](O)C2` [Compound 6d, 8‐Propyl‐(+)‐Catechin‐(4α,8)‐(+)‐Catechin] are 62.1 ± 3.73% and 78.8 ± 1.43%.
Taken in the same sequence, the figures for `Oc1ccc([C@H]2Oc3c(-c4ccncc4)c(O)cc(O)c3[C@@H](c3c(O)cc(O)c4c3O[C@H](c3ccc(O)c(O)c3)[C@@H](O)C4)[C@@H]2O)cc1O` [Compound 6g, 8‐(Pyridin‐4‐yl)‐(+)‐Catechin‐(4α,8)‐(+)‐Catechin] were 55.9 ± 8.56% and 71.4 ± 1.74%.
As to `COc1ccc([C@H]2Oc3c(c(O)cc(O)c3[C@@H]3c4c(O)cc(O)cc4O[C@H](c4ccc(O)c(O)c4)[C@H]3O)C[C@@H]2O)cc1O` [Compound 13d, (+)‐Catechin‐(4α,8)‐[4′‐O‐Methyl‐(+)‐Catechin]], in series [1], the viability at 2 µM is 63 ± 6.27% and the viability at 20 µM was 69 ± 8.76%.
Taken in the same sequence, the figures for `COc1cc([C@H]2Oc3cc(O)cc(O)c3[C@@H](c3c(O)cc(O)c4c3O[C@H](c3ccc(O)c(O)c3)[C@@H](O)C4)[C@@H]2O)ccc1O` [Compound 13a, 3′‐O‐Methyl‐(+)‐Catechin‐(4α,8)‐(+)‐Catechin] were 59.6 ± 2.82% and 65.5 ± 4.74%.
The corresponding values for `Oc1ccc([C@H]2Oc3c(-c4ccccc4)c(O)cc(O)c3[C@@H](c3c(O)cc(O)c4c3O[C@H](c3ccc(O)c(O)c3)[C@@H](O)C4)[C@@H]2O)cc1O` [Compound 6f, 8‐Phenyl‐(+)‐Catechin‐(4α,8)‐(+)‐Catechin] are 59.7 ± 7.43% and 70.4 ± 7.72%.
With `C#CCN(Cc1ccc(C(=O)c2ccccc2)cc1)C(=O)COc1cc(O)c([C@@H]2c3c(O)cc(O)cc3O[C@H](c3ccc(O)c(O)c3)[C@H]2O)c2c1C[C@H](O)[C@@H](c1ccc(O)c(O)c1)O2` [Compound 2, N‐(4‐Benzoylbenzyl)‐2‐(((2R,2′R,3S,3′S,4S)‐2,2′‐bis(3,4‐dihydroxyphenyl)‐3,3′,5,7,7′‐pentahydroxy‐[4,8′‐bichroman]‐5′‐yl)oxy)‐N‐(prop‐2‐yn‐1‐yl)acetamide], the “pull-down of G3BP1” value in series [2] was “pulled down”. Moreover, the neuroprotective activity entry in series [1] (100 µM, OGD/R‐treated HT22 cells) is recorded as “retained the neuroprotective activity of PB3”. Further, the stability result in series [3] is “poor”.
`COc1ccc([C@H]2Oc3cc(O)cc(O)c3[C@@H](c3c(O)cc(O)c4c3O[C@H](c3ccc(O)c(O)c3)[C@@H](O)C4)[C@@H]2O)cc1O` [Compound 13b, 4′‐O‐Methyl‐(+)‐Catechin‐(4α,8)‐(+)‐Catechin]: in series [1], the viability at 2 µM was 57.5 ± 7.11% and the viability at 20 µM was 70.54 ± 0.41%.
Taken in the same sequence, the figures for `Oc1ccc([C@H]2Oc3c(-c4cccnc4)c(O)cc(O)c3[C@@H](c3c(O)cc(O)c4c3O[C@H](c3ccc(O)c(O)c3)[C@@H](O)C4)[C@@H]2O)cc1O` [Compound 6h, 8‐(Pyridin‐3‐yl)‐(+)‐Catechin‐(4α,8)‐(+)‐Catechin] were 58.8 ± 7.12% and 75.3 ± 4.68%.
The corresponding values for `CC(=O)O[C@H]1[C@H](c2c(O)cc(O)c3c2O[C@H](c2ccc(O)c(O)c2)[C@@H](OC(C)=O)C3)c2c(O)cc(O)cc2O[C@@H]1c1ccc(O)c(O)c1` [Compound 8, 3‐O‐Acetyl‐(+)‐Catechin‐(4α,8)‐[3‐O‐Acetyl‐(+)‐Catechin]] are 62 ± 5.58% and 69.3 ± 6.73%.
The corresponding values for `CC1=NN(c2ccccc2)C(=O)C1` [EDA, edaravone, reference compound] are 60.8 ± 7.4% and 71.5 ± 9.84%.

Source of the values: publication PMC12677652, “Procyanidin B3 and Its Derivatives Alleviate Neuronal Injury by Targeting G3BP1 for Ischemic Stroke Therapy” (Advanced Science, 2025).
